Results as given in PubChem BioAssay (NCI).
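Tested at 5 concentrations; 48 h exposure; 96-well plates; endpoints linearly interpolated, else capped at highest concentration. Here, GI50 denotes the concentration required for 50% inhibition of growth. TGI is the concentration that stops growth completely.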

How the values were obtained:
Assay in all cases: NCI-60 cell line screen, 48 h
786-0 renal = system: 786-0 renal
A498 renal = system: A498 renal
A549 NSCLC = system: A549 NSCLC
ACHN renal = system: ACHN renal
BT-549 breast = system: BT-549 breast
CAKI-1 renal = system: CAKI-1 renal
CCRF-CEM leukemia = system: CCRF-CEM leukemia
COLO 205 colon = system: COLO 205 colon
DU-145 prostate = system: DU-145 prostate
EKVX NSCLC = system: EKVX NSCLC
HCC-2998 colon = system: HCC-2998 colon
HCT-116 colon = system: HCT-116 colon
HCT-15 colon = system: HCT-15 colon
HL-60(TB) leukemia = system: HL-60(TB) leukemia
HOP-62 NSCLC = system: HOP-62 NSCLC
HOP-92 NSCLC = system: HOP-92 NSCLC
HS 578T breast = system: HS 578T breast
HT29 colon = system: HT29 colon
IGROV1 ovarian = system: IGROV1 ovarian
K-562 leukemia = system: K-562 leukemia
KM12 colon = system: KM12 colon
LOX IMVI melanoma = system: LOX IMVI melanoma
M14 melanoma = system: M14 melanoma
MALME-3M melanoma = system: MALME-3M melanoma
MCF7 breast = system: MCF7 breast
MDA-MB-231 breast = system: MDA-MB-231 breast
MDA-MB-435 = system: MDA-MB-435
MOLT-4 leukemia = system: MOLT-4 leukemia
NCI-H226 lung = system: NCI-H226 lung
NCI-H23 lung = system: NCI-H23 lung
NCI-H460 lung = system: NCI-H460 lung
NCI-H522 lung = system: NCI-H522 lung
NCI/ADR-RES ovarian = system: NCI/ADR-RES ovarian
OVCAR-3 ovarian = system: OVCAR-3 ovarian
OVCAR-4 ovarian = system: OVCAR-4 ovarian
OVCAR-5 ovarian = system: OVCAR-5 ovarian
OVCAR-8 ovarian = system: OVCAR-8 ovarian
PC-3 prostate = system: PC-3 prostate
RPMI-8226 leukemia = system: RPMI-8226 leukemia
RXF 393 renal = system: RXF 393 renal
SF-268 CNS = system: SF-268 CNS
SF-295 CNS = system: SF-295 CNS
SF-539 CNS = system: SF-539 CNS
SK-MEL-2 melanoma = system: SK-MEL-2 melanoma
SK-MEL-28 melanoma = system: SK-MEL-28 melanoma
SK-MEL-5 melanoma = system: SK-MEL-5 melanoma
SK-OV-3 ovarian = system: SK-OV-3 ovarian
SN12C renal = system: SN12C renal
SNB-19 CNS = system: SNB-19 CNS
SNB-75 CNS = system: SNB-75 CNS
SR leukemia = system: SR leukemia
SW-620 colon = system: SW-620 colon
T-47D breast = system: T-47D breast
TK-10 renal = system: TK-10 renal
U251 CNS = system: U251 CNS
UACC-257 melanoma = system: UACC-257 melanoma
UACC-62 melanoma = system: UACC-62 melanoma
UO-31 renal = system: UO-31 renal

`Brc1cccc(-c2cc(-c3ccc4c(c3)OCCO4)[nH]n2)c1` showed a GI50 (786-0 renal) of 2.51 µM, a TGI (786-0 renal) of 28.4 µM and a GI50 (A498 renal) of 0.563 µM. For the same compound, the TGI (A498 renal) was 3.89 µM, the GI50 (A549 NSCLC) was 1.57 µM and the TGI (A549 NSCLC) was 37.6 µM. For the same compound, the GI50 (ACHN renal) was 1.54 µM, the TGI (ACHN renal) was 33.2 µM and the GI50 (BT-549 breast) was 1.62 µM. The TGI (BT-549 breast) was 47.8 µM, the GI50 (CAKI-1 renal) was 0.953 µM and the TGI (CAKI-1 renal) was 29.8 µM. It also gave a GI50 (CCRF-CEM leukemia) of 1.59 µM, a TGI (CCRF-CEM leukemia) of 250 µM and a GI50 (COLO 205 colon) of 1.03 µM. The TGI (COLO 205 colon) was 26 µM, the GI50 (DU-145 prostate) was 1.98 µM and the TGI (DU-145 prostate) was 27 µM. The GI50 (EKVX NSCLC) was 7.21 µM, the TGI (EKVX NSCLC) was 49.6 µM and the GI50 (HCC-2998 colon) was 3.92 µM. It also gave a TGI (HCC-2998 colon) of 33.4 µM, a GI50 (HCT-116 colon) of 1.13 µM and a TGI (HCT-116 colon) of 29.4 µM. It also gave a GI50 (HCT-15 colon) of 0.731 µM, a TGI (HCT-15 colon) of 30.6 µM and a GI50 (HL-60(TB) leukemia) of 0.891 µM. It also gave a TGI (HL-60(TB) leukemia) of 17.5 µM, a GI50 (HOP-62 NSCLC) of 1.38 µM and a TGI (HOP-62 NSCLC) of 41.3 µM. It also gave a GI50 (HOP-92 NSCLC) of 4.31 µM, a TGI (HOP-92 NSCLC) of 32.9 µM and a GI50 (HS 578T breast) of 1.25 µM. It also gave a TGI (HS 578T breast) of 30.6 µM, a GI50 (HT29 colon) of 0.804 µM and a TGI (HT29 colon) of 27.4 µM. It also gave a GI50 (IGROV1 ovarian) of 1.31 µM, a TGI (IGROV1 ovarian) of 30.2 µM and a GI50 (K-562 leukemia) of 0.584 µM. It also gave a TGI (K-562 leukemia) of 250 µM, a GI50 (KM12 colon) of 0.669 µM and a TGI (KM12 colon) of 25.5 µM. It also gave a GI50 (LOX IMVI melanoma) of 1.53 µM, a TGI (LOX IMVI melanoma) of 30.4 µM and a GI50 (M14 melanoma) of 0.729 µM. The TGI (M14 melanoma) was 31.1 µM, the GI50 (MALME-3M melanoma) was 1.3 µM and the TGI (MALME-3M melanoma) was 53.4 µM. The GI50 (MCF7 breast) was 1.06 µM, the TGI (MCF7 breast) was 41.2 µM and the GI50 (MDA-MB-231 breast) was 3.65 µM. For the same compound, the TGI (MDA-MB-231 breast) was 32.7 µM, the GI50 (MDA-MB-435) was 0.186 µM and the TGI (MDA-MB-435) was 0.97 µM. It also gave a GI50 (MOLT-4 leukemia) of 1.09 µM, a TGI (MOLT-4 leukemia) of 101 µM and a GI50 (NCI-H226 lung) of 12.1 µM. For the same compound, the TGI (NCI-H226 lung) was 60.9 µM, the GI50 (NCI-H23 lung) was 3.46 µM and the TGI (NCI-H23 lung) was 53.6 µM. The GI50 (NCI-H460 lung) was 0.877 µM, the TGI (NCI-H460 lung) was 6.07 µM and the GI50 (NCI-H522 lung) was 0.755 µM. It also gave a TGI (NCI-H522 lung) of 34.8 µM, a GI50 (NCI/ADR-RES ovarian) of 0.766 µM and a TGI (NCI/ADR-RES ovarian) of 29.8 µM. For the same compound, the GI50 (OVCAR-3 ovarian) was 0.718 µM, the TGI (OVCAR-3 ovarian) was 2.27 µM and the GI50 (OVCAR-4 ovarian) was 7.79 µM. For the same compound, the TGI (OVCAR-4 ovarian) was 48.5 µM, the GI50 (OVCAR-5 ovarian) was 3.69 µM and the TGI (OVCAR-5 ovarian) was 35.4 µM. It also gave a GI50 (OVCAR-8 ovarian) of 1.68 µM, a TGI (OVCAR-8 ovarian) of 40.1 µM and a GI50 (PC-3 prostate) of 1.44 µM. For the same compound, the TGI (PC-3 prostate) was 41.4 µM, the GI50 (RPMI-8226 leukemia) was 1.43 µM and the TGI (RPMI-8226 leukemia) was 236 µM. For the same compound, the GI50 (RXF 393 renal) was 1.77 µM, the TGI (RXF 393 renal) was 25.7 µM and the GI50 (SF-268 CNS) was 3.11 µM. It also gave a TGI (SF-268 CNS) of 37.1 µM, a GI50 (SF-295 CNS) of 2.93 µM and a TGI (SF-295 CNS) of 32.7 µM. The GI50 (SF-539 CNS) was 1.8 µM, the TGI (SF-539 CNS) was 8.48 µM and the GI50 (SK-MEL-2 melanoma) was 1.74 µM. For the same compound, the TGI (SK-MEL-2 melanoma) was 69.2 µM, the GI50 (SK-MEL-28 melanoma) was 11.2 µM and the TGI (SK-MEL-28 melanoma) was 55.5 µM. It also gave a GI50 (SK-MEL-5 melanoma) of 1.17 µM, a TGI (SK-MEL-5 melanoma) of 30.3 µM and a GI50 (SK-OV-3 ovarian) of 1.69 µM. It also gave a TGI (SK-OV-3 ovarian) of 43.6 µM, a GI50 (SN12C renal) of 1.47 µM and a TGI (SN12C renal) of 36.8 µM. For the same compound, the GI50 (SNB-19 CNS) was 3.05 µM, the TGI (SNB-19 CNS) was 50.5 µM and the GI50 (SNB-75 CNS) was 0.531 µM. It also gave a TGI (SNB-75 CNS) of 6.58 µM, a GI50 (SR leukemia) of 0.581 µM and a TGI (SR leukemia) of 136 µM. The GI50 (SW-620 colon) was 0.785 µM, the TGI (SW-620 colon) was 35.3 µM and the GI50 (T-47D breast) was 1.34 µM. For the same compound, the TGI (T-47D breast) was 50.1 µM, the GI50 (TK-10 renal) was 3.3 µM and the TGI (TK-10 renal) was 40.7 µM. It also gave a GI50 (U251 CNS) of 1.2 µM, a TGI (U251 CNS) of 33.4 µM and a GI50 (UACC-257 melanoma) of 11.6 µM. The TGI (UACC-257 melanoma) was 52.9 µM, the GI50 (UACC-62 melanoma) was 0.871 µM and the TGI (UACC-62 melanoma) was 40.9 µM. It also gave a GI50 (UO-31 renal) of 4.24 µM and a TGI (UO-31 renal) of 36.6 µM.
